Assay results: patent US20160115189A1, “PARASITICIDAL COMPOUNDS, METHODS, AND FORMULATIONS” (ELI LILLY AND COMPANY, priority 2013, published 2016)

Legend:
[1] = test system: adult brown dog tick (Rhipicephalus sanguineus); assay: Assay 3: adult brown dog tick infestations on dogs; type: in vivo, Rhipicephalus sanguineus on beagle dogs; settings: for % Efficacy (GM) / Geometric Mean Group Live Parasite Counts: topical spot-on 30 mg/kg
Experimental: (§1) The therapeutic (knockdown) and residual efficacy of the Example 1 compound, administered topically at a point dose of 30 mg/kg bodyweight, is evaluated against adult brown dog tick (Rhipicephalus sanguineus) and cat flea (Ctenocephalides felis) infestations on dogs. Based on pre-treatment tick retention rates, eight (8) beagle dogs are allocated to one of two treatment groups (n=4 per group): Untreated control group, and Example 1 compound-treated group. Dogs are infested with approximately 50 unfed, adult ticks one day prior to treatment (approximately 50% male and 50% female ticks). On Day 0, dogs are treated with Example 1 compound (50 mg/ml, dissolved in a vehicle solution of propylene carbonate, benzyl alcohol, and isopropyl myristate), applied via topical spot-on to achieve a point dose of 30 mg/kg. On Day 3 (approximately 72 hours after treatment), ticks are counted and removed from all dogs. To evaluate residual activity, dogs are re-infested with ticks on an approximate weekly basis for at least two weeks and up to 4 weeks, with tick counts (and removal) conducted 48 hours after each infestation. Dogs are infested with approximately 100 unfed, adult fleas at weeks 2 and 3 for both groups, concurrently with tick infestation.
(§2) The total number of live parasites present on each dog is determined for each interval, and this number is transformed using the natural logarithm transformation plus one (Ln count+1); addition of one to each count served to adjust for counts that are zero. Geometric mean (GM) group tick and flea counts are obtained via back-transformation of group mean transformed counts and subtracting one. The negative control group is used for comparison to treated groups for the calculation of percent efficacy (% reduction in live parasite counts). GM percent efficacy of treatments is calculated using the following formula: […]

[2] = test system: cat flea (Ctenocephalides felis); assay: Assay 3: cat flea infestations on dogs; type: in vivo, Ctenocephalides felis on beagle dogs; settings: for % Efficacy (GM) / Geometric Mean Group Live Parasite Counts: topical spot-on 30 mg/kg
Experimental: as §1, §2

[3] = test system: Rhipicephalus sanguineus (Brown dog tick); assay: Assay 4: adult brown dog tick infestations on dogs, descending doses; type: in vivo, Rhipicephalus sanguineus on beagle dogs
Experimental: as §2
(§3) The therapeutic (knockdown) and residual efficacy of the Example 1 compound, administered via topical spot-on at descending point doses of 30, 20 and 10 mg/kg, is evaluated against adult tick (Dermacentor variabilis (American dog tick) and Rhipicephalus sanguineus (Brown dog tick)) infestations on dogs. Twenty-four (24) beagle dogs are allocated to either an untreated, negative control group or one of three treated groups (n=6 dogs per group). Dogs are infested with approximately 50 unfed, adult R. sanguineus ticks on Days −1, 5, 12, 19 and 28; dogs are concurrently infested with D. variabilis ticks on Day 12 and Day 28. On Day 0, dogs are treated with the Example 1 compound (50 mg/ml of technical active dissolved in a vehicle solution of propylene carbonate, benzyl alcohol, and isopropyl myristate), applied via topical spot-on in a volume so as to achieve point doses of 30, 20 and 10 mg/kg. Tick counts and classification are conducted on Days 3, 7, 14, 21 and 30. GM percent efficacy of treatments against both tick species is calculated using the formula in Assay 3.

[4] = test system: Dermacentor variabilis (American dog tick); assay: Assay 4: adult American dog tick infestations on dogs, descending doses; type: in vivo, Dermacentor variabilis on beagle dogs
Experimental: as §2, §3

[5] = test system: adult brown tick (Rhipicephalus sanguineus); assay: Assay 5: adult brown tick infestations on dogs; type: in vivo, Rhipicephalus sanguineus on beagle dogs; settings: 10 mg/kg topical spot-on
Experimental: as §2
The therapeutic (knockdown) and residual efficacy of the Example 1-4 compounds, when administered via topical spot-on at 10 mg/kg, is evaluated against adult brown tick (Rhipicephalus sanguine us) infestations on dogs. Twenty (20) beagle dogs are allocated to either an untreated, negative control group or one of four treated groups (n=4 dogs per group). Dogs are infested with approximately 50 unfed, adult R. sanguineus ticks on Days −1, 5, 12, 19 and 28. On Day 0, dogs are treated with Example 1-4 compound formulations (each, 50 mg/ml of technical active dissolved in a vehicle solution of propylene carbonate, benzyl alcohol, and isopropyl myristate), applied via topical spot-on in a volume so as to achieve a point dose of 10 mg/kg. Tick counts and classification are conducted on Days 2, 7, 14, 21 and 30. GM percent efficacy of treatments against ticks is calculated using the formula in Assay 3.

[6] = Assay 3: tolerability in dogs; type: in vivo, beagle dogs; settings: topical spot-on 30 mg/kg
[7] = Assay 4: tolerability in dogs; type: in vivo, beagle dogs; settings: topical spot-on 30, 20 and 10 mg/kg
[8] = topical 30 mg/kg, through week 4
[9] = 10 mg/kg topical spot-on, Day 3, Rs
[10] = 10 mg/kg topical spot-on, Day 7, Rs
[11] = 10 mg/kg topical spot-on, Day 14, Rs
[12] = 10 mg/kg topical spot-on, Day 21, Rs
[13] = 10 mg/kg topical spot-on, Day 30, Rs
[14] = 20 mg/kg topical spot-on, Day 3, Rs
[15] = 20 mg/kg topical spot-on, Day 7, Rs
[16] = 20 mg/kg topical spot-on, Day 14, Rs
[17] = 20 mg/kg topical spot-on, Day 21, Rs
[18] = 20 mg/kg topical spot-on, Day 30, Rs
[19] = 30 mg/kg topical spot-on, Day 3, Rs
[20] = 30 mg/kg topical spot-on, Day 7, Rs
[21] = 30 mg/kg topical spot-on, Day 14, Rs
[22] = 30 mg/kg topical spot-on, Day 21, Rs
[23] = 30 mg/kg topical spot-on, Day 30, Rs
[24] = 10 mg/kg topical spot-on, Day 14, Dv
[25] = 10 mg/kg topical spot-on, Day 30, Dv
[26] = 20 mg/kg topical spot-on, Day 14, Dv
[27] = 20 mg/kg topical spot-on, Day 30, Dv
[28] = 30 mg/kg topical spot-on, Day 14, Dv
[29] = 30 mg/kg topical spot-on, Day 30, Dv

CC[C@H]1CCC[C@H](NC(=O)c2ccco2)[C@@H](C)C(=O)C2=C[C@@H]3[C@@H](C=C[C@@H]4C[C@@H](O[C@@H]5O[C@@H](C)[C@H](OC)C(OC)[C@H]5OC)C[C@@H]34)[C@@H]2CC(=O)O1 (stereo partly drawn) [Example 1, N-((2R,3aS,5aR,5bS,9S,13S,14R,16aS,16bR)-9-ethyl-14-methyl-7,15-dioxo-2-(((2R,3R,5S,6S)-3,4,5-trimethoxy-6-methyltetrahydro-2H-pyran-2-yl)oxy)-2,3,3a,5a,5 b,6,7,9,10,11,12,13,14,15,16a,16b-hexadecahydro-1H-as-indaceno[3,2-d][1]oxacyclododecin-13-yl)furan-2-carboxamide]
residual efficacy against ticks [1, 8]: > 90% | % Efficacy (GM) ([1]; Day 3, Tick): (87.42) % | Geometric Mean Group Live Parasite Counts ([1]; Day 3, Tick): 3.95 | % Efficacy (GM) ([1]; Week 1, Tick): (99.44) % | Geometric Mean Group Live Parasite Counts ([1]; Week 1, Tick): 0.19 | % Efficacy (GM) ([1]; Week 2, Tick): (100) % | Geometric Mean Group Live Parasite Counts ([1]; Week 2, Tick): 0.00 | % Efficacy (GM) ([1]; Week 3, Tick): (100) % | Geometric Mean Group Live Parasite Counts ([1]; Week 3, Tick): 0.00 | % Efficacy (GM) ([1]; Week 4, Tick): (100) % | Geometric Mean Group Live Parasite Counts ([1]; Week 4, Tick): 0.00 | residual efficacy against fleas [2, 8]: > 90% | % Efficacy (GM) ([2]; Week 2, Flea): (91.73) % | Geometric Mean Group Live Parasite Counts ([2]; Week 2, Flea): 7.15 | % Efficacy (GM) ([2]; Week 3, Flea): (91.64) % | Geometric Mean Group Live Parasite Counts ([2]; Week 3, Flea): 7.21 | % Efficacy (GM) [3, 9]: (73.39) % | Geometric Mean Group Live Tick Counts [3, 9]: 4.92 | % Efficacy (GM) [3, 10]: (100) % | Geometric Mean Group Live Tick Counts [3, 10]: 0.00 | % Efficacy (GM) [3, 11]: (97.59) % | Geometric Mean Group Live Tick Counts [3, 11]: 0.70 | % Efficacy (GM) [3, 12]: (96.14) % | Geometric Mean Group Live Tick Counts [3, 12]: 0.70 | % Efficacy (GM) [3, 13]: (90.64) % | Geometric Mean Group Live Tick Counts [3, 13]: 1.18 | % Efficacy (GM) [3, 14]: (84.80) % | Geometric Mean Group Live Tick Counts [3, 14]: 2.81 | % Efficacy (GM) [3, 15]: (100) % | Geometric Mean Group Live Tick Counts [3, 15]: 0.00 | % Efficacy (GM) [3, 16]: (99.58) % | Geometric Mean Group Live Tick Counts [3, 16]: 0.12 | % Efficacy (GM) [3, 17]: (99.32) % | Geometric Mean Group Live Tick Counts [3, 17]: 0.12 | % Efficacy (GM) [3, 18]: (94.12) % | Geometric Mean Group Live Tick Counts [3, 18]: 0.74 | % Efficacy (GM) [3, 19]: (79.13) % | Geometric Mean Group Live Tick Counts [3, 19]: 3.86 | % Efficacy (GM) [3, 20]: (98.92) % | Geometric Mean Group Live Tick Counts [3, 20]: 0.12 | % Efficacy (GM) [3, 21]: (99.10) % | Geometric Mean Group Live Tick Counts [3, 21]: 0.26 | % Efficacy (GM) [3, 22]: (97.55) % | Geometric Mean Group Live Tick Counts [3, 22]: 0.44 | % Efficacy (GM) [3, 23]: (95.94) % | Geometric Mean Group Live Tick Counts [3, 23]: 0.51 | Therapeutic (knockdown) efficacy ([3]; Day 3, treatments 30, 20 and 10 mg/kg): 73-85% | Residual efficacy against R. sanguineus ([3]; through Day 21, all treatments (30, 20, 10 mg/kg)): > 95% | Residual efficacy against R. sanguineus ([3]; through Day 30, 30 mg/kg dose): > 95% | % Efficacy (GM) [4, 24]: (99.49) % | Geometric Mean Group Live Tick Counts [4, 24]: 0.12 | % Efficacy (GM) [4, 25]: (95.30) % | Geometric Mean Group Live Tick Counts [4, 25]: 1.60 | % Efficacy (GM) [4, 26]: (97.87) % | Geometric Mean Group Live Tick Counts [4, 26]: 0.51 | % Efficacy (GM) [4, 27]: (97.34) % | Geometric Mean Group Live Tick Counts [4, 27]: 0.91 | % Efficacy (GM) [4, 28]: (98.06) % | Geometric Mean Group Live Tick Counts [4, 28]: 0.47 | % Efficacy (GM) [4, 29]: (97.95) % | Geometric Mean Group Live Tick Counts [4, 29]: 0.70 | Residual efficacy against D. variabilis ticks ([4]; all doses, both Day 14 and Day 30 intervals): > 95% | GM percent efficacy ([5]; Day 2, R. sanguineus): (68.16) | Geometric Mean Group Live Tick Counts ([5]; Day 2, R. sanguineus): 10.03 | GM percent efficacy ([5]; Day 7, R. sanguineus): (100) | Geometric Mean Group Live Tick Counts ([5]; Day 7, R. sanguineus): 0.00 | GM percent efficacy ([5]; Day 14, R. sanguineus): (97.41) | Geometric Mean Group Live Tick Counts ([5]; Day 14, R. sanguineus): 0.57 | GM percent efficacy ([5]; Day 21, R. sanguineus): (95.27) | Geometric Mean Group Live Tick Counts ([5]; Day 21, R. sanguineus): 1.59 | GM percent efficacy ([5]; Day 30, R. sanguineus): (67.97) | Geometric Mean Group Live Tick Counts ([5]; Day 30, R. sanguineus): 8.40 | tolerability of treatment [6]: well tolerated | tolerability of treatment [7]: well tolerated
